| SMILES | melting point |
| --- | --- |
| Cc1cncnc1Nc1ccc(C(=O)CC2CCN(Cc3ccccc3)CC2)cc1 | 211 to 213 °C |
| Clc1ccc(Cc2c(Cl)nc3ncnn3c2Cl)cc1 | 165 to 167 °C |
| O=C(O)Cn1cc(Cc2nc3c(F)c(F)cc(F)c3s2)c2cc(F)ccc21 | 193 to 195 °C |
| CC1(CNC(=O)C2CCCCC2)OCCc2c1[nH]c1ccccc21 (stereo not drawn) | 174 to 175 °C |
| C=C1CCC2=C(C1)CC(C)C1C2CCC2(C)C(O)CCC12 (stereo not drawn) | 112 °C |
| CC(C)(C)c1ccc(Cn2cnc3c(-c4ccco4)ncnc32)cc1 | 185 to 187 °C |
| CN1C(=O)C2(COc3cc4c(cc32)OCCO4)c2c(Oc3ccc(C(F)(F)F)cc3)cccc21 (stereo not drawn) | 198 to 201 °C |
| O=C(Cc1ccccn1)N1CCC(C2c3ccc(Cl)cc3CCc3cccnc32)CC1 (stereo not drawn) | 81.7 to 82 °C |
| CNc1sc(-c2cccnc2)nc1C | 84 to 87 °C |
| CCCCSC(=S)N1Cc2[nH]c3ccccc3c2CC1C(=O)O (stereo not drawn) | 163 to 164 °C |
| COc1cc(-c2ncn(Cc3ccccc3)c2-c2scc(OC)c2OC)cc(OC)c1OC | 114 to 115 °C |
| O=CNc1nc(S(=O)(=O)Nc2c(F)cccc2F)n[nH]1 | 258 to 260 °C |
| O=C(O)CN(C(=O)c1ccccc1S)C1CCCC1 | 148 to 150 °C |
| CC(C)(C)N(O)Cc1ccc(CN(O)C(C)(C)C)cc1 | 137 to 138 °C |
| CCCCCCCCCCCCNS(=O)(=O)c1cccc(C(F)(F)F)c1 | 65 to 68 °C |
| Cc1c(Br)cc(Br)c(NC(=O)CBr)c1Br | 207 to 209 °C |
| N#Cc1ccc2nc(-c3ccc(Br)cc3)cn2c1 | 262 to 264 °C |
| CCCCOC(=O)c1c(CN2CCCCC2)nc2cc(OC)c(OC)cc2c1-c1ccc(OC)c(OC)c1 | 154 to 155 °C |
| CC(C)(C)c1ccc(COc2cc(C(O)C#Cc3ccc(C(=O)O)cc3)cc3c2C(C)(C)CCC3(C)C)cc1 (stereo not drawn) | 254 °C |
| COc1ccc(C(C[N+](=O)[O-])SC(=S)N(C)C)cc1 (stereo not drawn) | 86 to 89 °C |
| COc1ccc(C(=O)c2ccccc2C)cc1C | 72 to 73 °C |
| CCC(C)(C)c1ccc(OCC(=O)O)c(C(C)(C)C)c1 | 140 to 144 °C |

| SMILES | melting point |
| --- | --- |
| CCOC(=O)C1=C(Nc2ccc(C(=O)OCC)cc2)OCC1=O | 152 to 153 °C |
| O=C(CN1C(=O)C(NC(=O)n2ccnc2)N=C(c2ccccc2F)c2ccccc21)N1CC2CCC(CC2)C1 (racemic) | 235 to 237 °C |
| O=C(O)CCCCC[C@@H]1C[C@@H](NS(=O)(=O)c2ccc(Cl)cc2)CN1S(=O)(=O)c1ccc(Cl)cc1 | 124 to 125 °C |
| Cc1cc(-n2ccnc2)c2cccc(OCc3c(Cl)ccc(-n4cccc4CNC(=O)C=Cc4ccc(C(=O)O)cc4)c3Cl)c2n1 | 166 to 170 °C |
| O=C1NCC(Cc2ccccc2Br)O1 (stereo not drawn) | 130 to 131 °C |
| CCOCc1nc2c(N)nc3ccccc3c2n1CCCC(C)=O | 173 to 175 °C |
| CN(C)CCOCc1ccc2[nH]nc(S(=O)(=O)c3cccc4ccccc34)c2c1 | > 200 °C |
| CSCCC1NCCNC1=O (stereo not drawn) | 68 to 70 °C |
| Cc1ccccc1C(=O)Nc1ccc(C(=O)N2Cc3ccccc3-c3ccccc32)cc1 | 190 to 194 °C |
| COc1ccc(C2=NN(c3ccc(Br)cc3)C(=O)C(C)(C)C2)cc1OC | 123 to 124 °C |
| CCOC(=O)C(F)(F)C(O)(CC)c1cc2n(c(=O)c1CO)Cc1cc3ccccc3nc1-2 (stereo not drawn) | 208 to 209 °C |
| NOCc1cnn(C(c2ccccc2)(c2ccccc2)c2ccccc2)c1 | 133 to 136 °C |
| O=Cc1cn(Cc2ccc(OCc3coc(-c4ccccc4)n3)cc2)nc1-c1cccs1 | 153 to 154 °C |
| CN1CCCc2cc(CC3SC(=O)NC3=O)ccc21 (stereo not drawn) | 122 to 125 °C |
| COC(=O)c1ccc(C=C(Br)Br)c(N)c1 | 97 to 99 °C |
| CN1C=CCC(C(=O)OC2CCC3C4CCC5=CC(=O)CCC5(C)C4CCC23C)=C1 (stereo not drawn) | 172 to 175 °C |
| Cc1ccc(-n2c(-c3sc(Nc4ccccc4)nc3-c3ccccc3)nc3ccccc3c2=O)cc1 | 225 to 228 °C |
| Clc1cccc(Nc2ncnc3[nH]nc(NCc4ccc(-c5nccs5)cc4)c23)c1 | 241 to 243 °C |
| CCOP(=O)(O)Cc1nc2nc[nH]c2c2nc(-c3ccc(C(C)(C)C)cc3)nn12 | 254 to 256 °C |
| COc1ccc(Cn2ncc3c4c(cnc32)CN(S(=O)(=O)c2ccccc2)CC4)cc1 | 136 to 138 °C |
| CN(C)c1ccc2c(n1)C(c1ccccc1Cl)=NCc1n[nH]c(=O)n1-2 | 244 to 246 °C |
| CN(CCCCNC(=NCCSCc1csc(NC(=N)N)n1)NC#N)CCN(Cc1ccc(F)cc1)c1ccccn1 | 137 °C |

| SMILES | melting point |
| --- | --- |
| CC(=O)N(c1nc(N)no1)c1c(Cl)cccc1Cl | 164 to 165 °C |
| Cn1c(=O)c(Cc2ccccc2F)cc2cnc(S(C)(=O)=O)nc21 | 154 °C |
| COc1ccc(C(=C(C=O)c2nnnn2C)c2ccc(OC)cc2)cc1 | 130 to 131 °C |
| C#Cc1ccc(C(=O)c2ccc3n2CCC3C(=O)OC)cc1 (stereo not drawn) | 113 to 114 °C |
| CS(=O)(=O)c1ccc(-c2cc(C=O)sc2-c2ccc(F)cc2)cc1 | 165 to 166 °C |
| CCOC(=O)c1c(N2CCN(C(=O)c3cccs3)CC2)c2sccc2[nH]c1=O | 252 °C |
| Oc1cccc([C@H]2CC[C@@H](c3ccccc3)N2)c1 (racemic) | 151 °C |
| Cc1cc(-c2nc3cccnn3c2-c2ccnc(NC(=O)Nc3cccnc3)c2)ccc1F | 233 to 234 °C |
| CC(CN1CCN(C(c2ccc(F)cc2)c2ccc(F)cc2)CC1)Cn1c(=O)[nH]c2ccccc21 (stereo not drawn) | 176 °C |
| CC(=O)SCC(C)C1CCC2C3CCC4=C(N)C(=O)CCC4(C)C3CCC12C (stereo not drawn) | 173 to 176 °C |
| CCCc1nn(C)c2c(=O)[nH]c(-c3cc([N+](=O)[O-])cnc3OC3CCC3)nc12 | 212 to 214 °C |
| CCOC(=O)C1=C(C)N=C(SCc2ccc(OC)cc2)N(C(=O)OC(C)C)C1c1cccc(Cl)c1Cl (stereo not drawn) | 97 to 99 °C |
| COCc1cc([N+](=O)[O-])ccc1OCc1ccccc1 | 108 °C |
| O=C(Cc1ccc(OCc2ccc(F)cc2)cc1)NC1(c2nn[nH]n2)Cc2ccc(-c3ccc(Cl)cc3)cc2C1 (stereo not drawn) | 108 to 110 °C |
| O=C(Nc1cccc2c(CO)ccnc12)c1c(Cl)cccc1Cl | 235 to 239 °C |
| COC(=O)c1c(-c2ccc(OC)cc2)sc2cc(OC)ccc12 | 85.4 to 86.6 °C |
| CC(=O)c1ccc(C=Cc2ccc(C(C)=O)s2)s1 | 248 °C |
| O=C(CO)c1c[nH]c2cc(OCc3ccccc3)ccc12 | 194 to 195 °C |
| COC(=O)c1cc(C#Cc2cnc3nc(NC(=O)C(C)(C)C)nc(O)c3c2)cn1[Si](C(C)C)(C(C)C)C(C)C | 163 to 165 °C |
| CS(=O)(=O)N1CCC(NC(=O)OCc2ccccc2)CC1 | 149 to 153 °C |
| Cc1cc(C)c(N=c2cc(-c3ccc(O)c(O)c3)n(C)c(=O)n2C)c(C)c1 | 222 to 225 °C |
| O=C(Nc1ccc(-n2nc(C(F)(F)F)cc2C2CC2)cc1)c1cccc(F)c1F | 147 to 152 °C |

Now from value to compound:

| melting point | SMILES |
| --- | --- |
| 180 to 182 °C | Cc1cc(O)c(S(=O)(=O)Cc2ccc(F)cc2)c(=O)o1 |
| 208 to 209 °C | CCOP(=O)(Cc1ccc(NC(=O)/C=C/c2cnn(C)c2-c2ccc(F)cc2)cc1)OCC |
| 189 to 191 °C | COc1ccc(S(=O)(=O)N2Cc3ccccc3N(C(=O)c3ccc(OC)cc3OC)CC2C(=O)NO)cc1 (stereo not drawn) |
| 133 to 134 °C | CCc1c(-c2ccc(OCc3ccccc3)cc2)c2c(CO)cc3c(OCc4ccccc4)ccc1n32 |
| 64 to 66 °C | O=C(O)C=CC(=O)NCCC(F)=C(F)F |
| 228 to 230 °C | CCc1nc2cccc(C)c2c(=O)n1C1CCC(=O)NC1=O (stereo not drawn) |
| 135 to 137 °C | Cn1c(C(F)(F)F)cc(=O)n(-c2cc(OCc3cccc(F)c3)c(Cl)cc2F)c1=O |
| 211 to 213 °C | O=C(Nc1ccc2nc(CN3CCCCC3)ccc2c1)c1ccc(-c2ccc(Cl)cc2)cc1 |
| 164 °C | Cc1ccc(NC(=O)Cc2ccc(OC(C)(C)C(=O)O)cc2)cc1 |
| 188 to 190 °C | Cc1c(C)c(N2CCN(c3ccc(C(F)(F)F)cc3)CC2)c(C)c2c1OC(C)(C)C2=O |
| 152 to 155 °C | Nc1nc(N)c2ncn(C3C=CC(CO)C3)c2n1 (stereo not drawn) |
| 261 to 262 °C | O=C(O)c1ccc(Cl)c(Sc2ccccc2[N+](=O)[O-])c1 |
| 178 °C | COc1nc(C2CC2)nc(O)c1C |
| 222 to 224 °C | COc1ccc(-c2nn(C(C)c3oc4ccccc4c(=O)c3-c3cccc(F)c3)c3ncnc(N)c23)cc1F (stereo not drawn) |
| 106 to 107 °C | CC(C)(C)OC(=O)N1CCS(=O)(=O)C1 |
| 105 °C | CCOc1cc(OCC)c([N+](=O)[O-])c(OCC)c1[N+](=O)[O-] |

| melting point | SMILES |
| --- | --- |
| 142 °C | O=C(Nc1ccc(N2CCSCC2)c(F)c1)OCc1ccccc1 |
| 230 to 233 °C | CCc1cn(C)c2cc(-c3ccccc3Cl)c3c(c12)C(=O)NC3=O |
| 192 to 193 °C | NC(N)=Nc1nc(-c2cccc(CNC=O)n2)cs1 |
| 198 to 199 °C | CC(C)CCOc1c(Sc2ccc(C(C)(C)C)cc2)c(Sc2ccccc2N)c(OCCC(C)C)c2c1C(=N)NC2=N |
| 62 to 63 °C | COC(=O)c1ccc(OC)c(O)c1 |
| 160 to 162 °C | CN1CCC(c2c[nH]c3ccc(C(=O)c4ccc(C(F)(F)F)cc4)cc23)CC1 |
| 65 to 85 °C | COc1cc2c(cc1Nc1ncc(Cl)c(Nc3ccccc3OC)n1)CCN(CC(=O)N(C)C)CC2 |
| 128 to 130 °C | CSc1sc(-c2ccn(C)n2)c2c1-c1oncc1C(C)(C)C2 |
| 147 to 149 °C | O=C(O)Cc1cccc(C(=O)c2ccc(O)cc2)c1 |
| 96 °C | CC1CCCN(C(=O)COc2cc(-c3ccccc3)nc3ccccc23)C1 (stereo not drawn) |
| 171 to 173 °C | Cc1[nH]c(Cc2ccccc2)nc1C=O |
| 232 to 235 °C | O=C(O)c1ccc(C(=O)/C=C/c2ccc(-c3nccs3)cc2)cc1 |
| 50 to 51 °C | CCc1nn(C)c(N)c1Cl |
| 152 °C | CC#CCOc1ccc(SC(C(=O)NO)c2ccc(Cl)cc2)cc1 (stereo not drawn) |
| 198 to 202 °C | CC(=O)c1nc(-c2ccc(O)cc2)n(C)c1C |
| 140 to 142 °C | CNc1cc(F)ccc1C(=O)CS(=O)(=O)NC |
